# Test system: MV-4-11 cells
# Assay: Gene expression microarray analysis (Affymetrix PrimeView) and GSEA
# Type: cell-based, human
# Design: RFU PODN (11730768_x_at) / Fold change /veh PODN (11730768_x_at) / RFU LINC00158 (11744669_a_at) / Fold change /veh LINC00158 (11744669_a_at) / RFU DUSP10 (11751237_a_at) / Fold change /veh DUSP10 (11751237_a_at) / RFU ID3 (11757404_x_at) / Fold change /veh ID3 (11757404_x_at) / RFU PLEKHG5 (11737974_s_at) / Fold change /veh PLEKHG5 (11737974_s_at) / RFU LRRC4B (11730491_at) / Fold change /veh LRRC4B (11730491_at) / RFU GIMAP4 (11747438_a_at) / Fold change /veh GIMAP4 (11747438_a_at) / RFU KRT8 (11758183_x_at) / Fold change /veh KRT8 (11758183_x_at) / RFU CNN1 (11734310_a_at) / Fold change /veh CNN1 (11734310_a_at) / RFU VPS37D (11726825_at) / Fold change /veh VPS37D (11726825_at) / RFU C10orf10 (11716522_x_at) / Fold change /veh C10orf10 (11716522_x_at) / RFU KIR2DL2 /// KIR2DL4 /// KIR2DL5A /// KIR2DL5B /// KIR2DS1 /// KIR2DS2 /// KIR2DS3 /// KIR2DS4 /// KIR3DL3 /// KIR3DL3 /// KIR3DS1 (11738374_at) / Fold change /veh KIR2DL2 /// KIR2DL4 /// KIR2DL5A /// KIR2DL5B /// KIR2DS1 /// KIR2DS2 /// KIR2DS3 /// KIR2DS4 /// KIR3DL3 /// KIR3DL3 /// KIR3DS1 (11738374_at) / RFU C1QL1 (11718748_at) / Fold change /veh C1QL1 (11718748_at) / RFU TMPRSS4 (11747572_a_at) / Fold change /veh TMPRSS4 (11747572_a_at) / RFU HAMP (11756126_x_at) / Fold change /veh HAMP (11756126_x_at) / RFU RNFT2 (11725882_a_at) / Fold change /veh RNFT2 (11725882_a_at) / RFU NR4A2 (11747474_a_at) / Fold change /veh NR4A2 (11747474_a_at) / RFU ABCC12 (11746883_a_at) / Fold change /veh ABCC12 (11746883_a_at) / RFU TMEM136 (11760407_x_at) / Fold change /veh TMEM136 (11760407_x_at) / RFU CLDN22 /// WWC2 (11732394_at) / Fold change /veh CLDN22 /// WWC2 (11732394_at) / RFU HLA-DPB1 (11760878_x_at) / Fold change /veh HLA-DPB1 (11760878_x_at) / RFU SPINT1 (11716480_a_at) / Fold change /veh SPINT1 (11716480_a_at) / RFU GAP43 (11754022_s_at) / Fold change /veh GAP43 (11754022_s_at) / RFU A4GNT (11735810_at) / Fold change /veh A4GNT (11735810_at) / RFU PRB3 (11715151_x_at) / Fold change /veh PRB3 (11715151_x_at) / RFU TUBB4B (11761932_at) / Fold change /veh TUBB4B (11761932_at) / RFU CAPN14 (11732068_a_at) / Fold change /veh CAPN14 (11732068_a_at) / RFU TMCC2 (11721928_a_at) / Fold change /veh TMCC2 (11721928_a_at) / RFU IRGQ (11745062_a_at) / Fold change /veh IRGQ (11745062_a_at) / RFU FAM174B (11720279_a_at) / Fold change /veh FAM174B (11720279_a_at) / RFU TMPRSS4 (11748680_a_at) / Fold change /veh TMPRSS4 (11748680_a_at) / RFU FAM212B (11763350_a_at) / Fold change /veh FAM212B (11763350_a_at) / RFU PLEKHG5 (11743358_a_at) / Fold change /veh PLEKHG5 (11743358_a_at) / RFU ZSCAN30 (11745921_a_at) / Fold change /veh ZSCAN30 (11745921_a_at) / RFU CMKLR1 (11741424_a_at) / Fold change /veh CMKLR1 (11741424_a_at) / RFU LOC101060620 /// MAPK8IP1 (11723275_at) / Fold change /veh LOC101060620 /// MAPK8IP1 (11723275_at) / RFU SPTSSB (11747773_x_at) / Fold change /veh SPTSSB (11747773_x_at) / RFU PRSS12 (11739890_at) / Fold change /veh PRSS12 (11739890_at) / RFU BIN1 (11741810_x_at) / Fold change /veh BIN1 (11741810_x_at) / RFU WNT11 (11732464_a_at) / Fold change /veh WNT11 (11732464_a_at) / RFU C10orf10 (11716521_a_at) / Fold change /veh C10orf10 (11716521_a_at) / RFU C5orf56 (11738089_at) / Fold change /veh C5orf56 (11738089_at) / RFU CYB561 (11721691_x_at) / Fold change /veh CYB561 (11721691_x_at) / RFU ANKRD19P (11752326_a_at) / Fold change /veh ANKRD19P (11752326_a_at) / RFU OR2T12 /// OR2T33 /// OR2T8 (11738714_s_at) / Fold change /veh OR2T12 /// OR2T33 /// OR2T8 (11738714_s_at) / RFU VCAN (11748164_a_at) / Fold change /veh VCAN (11748164_a_at) / RFU JSRP1 (11732532_at) / Fold change /veh JSRP1 (11732532_at) / RFU KRTAP10-11 (11738290_x_at) / Fold change /veh KRTAP10-11 (11738290_x_at) / RFU MYO3A (11730013_a_at) / Fold change /veh MYO3A (11730013_a_at) / RFU EBF3 (11725865_a_at) / Fold change /veh EBF3 (11725865_a_at) / RFU CAMK2N1 (11719241_x_at) / Fold change /veh CAMK2N1 (11719241_x_at) / RFU C5orf56 (11738088_a_at) / Fold change /veh C5orf56 (11738088_a_at) / RFU OLFML3 (11715873_a_at) / Fold change /veh OLFML3 (11715873_a_at) / RFU LOC100653217 /// NTM (11731650_a_at) / Fold change /veh LOC100653217 /// NTM (11731650_a_at) / RFU MAPK11 (11762145_a_at) / Fold change /veh MAPK11 (11762145_a_at) / RFU FIZ1 (11724087_x_at) / Fold change /veh FIZ1 (11724087_x_at) / RFU OASL (11726364_x_at) / Fold change /veh OASL (11726364_x_at) / RFU SOX15 (11748057_x_at) / Fold change /veh SOX15 (11748057_x_at) / RFU CD79A (11719716_a_at) / Fold change /veh CD79A (11719716_a_at) / RFU HIST1H1D (11736915_at) / Fold change /veh HIST1H1D (11736915_at) / RFU CASKIN2 (11723855_a_at) / Fold change /veh CASKIN2 (11723855_a_at) / RFU LOC730098 (11760151_x_at) / Fold change /veh LOC730098 (11760151_x_at) / RFU OR4N2 (11742367_at) / Fold change /veh OR4N2 (11742367_at) / RFU PRRT2 (11749266_a_at) / Fold change /veh PRRT2 (11749266_a_at) / RFU SNX32 (11753110_a_at) / Fold change /veh SNX32 (11753110_a_at) / RFU CDHR5 (11726645_a_at) / Fold change /veh CDHR5 (11726645_a_at) / RFU RCAN1 (11760418_a_at) / Fold change /veh RCAN1 (11760418_a_at) / RFU FAM167A (11723789_a_at) / Fold change /veh FAM167A (11723789_a_at) / RFU FAM26E (11764081_at) / Fold change /veh FAM26E (11764081_at) / RFU ISYNA1 (11749810_s_at) / Fold change /veh ISYNA1 (11749810_s_at) / RFU ACY1 (11761880_at) / Fold change /veh ACY1 (11761880_at) / RFU 11764098_at / Fold change /veh 11764098_at / RFU SAMD14 (11745864_x_at) / Fold change /veh SAMD14 (11745864_x_at) / RFU NPB (11741838_a_at) / Fold change /veh NPB (11741838_a_at) / RFU TMPRSS6 (11731388_a_at) / Fold change /veh TMPRSS6 (11731388_a_at) / RFU KRTAP10-2 (11738614_at) / Fold change /veh KRTAP10-2 (11738614_at) / RFU ARHGAP8 /// PRR5-ARHGAP8 (11727945_x_at) / Fold change /veh ARHGAP8 /// PRR5-ARHGAP8 (11727945_x_at) / RFU KRTAP5-7 /// NADSYN1 (11734609_at) / Fold change /veh KRTAP5-7 /// NADSYN1 (11734609_at) / RFU RASL12 (11751679_a_at) / Fold change /veh RASL12 (11751679_a_at) / RFU CDKN2B (11736163_a_at) / Fold change /veh CDKN2B (11736163_a_at) / RFU PRF1 (11729649_at) / Fold change /veh PRF1 (11729649_at) / RFU, ZNF638 /// ZNF638-IT1 / Fold change vs veh, ZNF638 /// ZNF638-IT1 / RFU, PANK3 / Fold change vs veh, PANK3 / RFU, SH3YL1 / Fold change vs veh, SH3YL1 / RFU, ZEB2 / Fold change vs veh, ZEB2 / RFU, NRIP1 / Fold change vs veh, NRIP1 / RFU, PTTG1IP / Fold change vs veh, PTTG1IP / RFU, CAPN2 / Fold change vs veh, CAPN2 / RFU, MED14 / Fold change vs veh, MED14 / RFU, SNORA58 / Fold change vs veh, SNORA58 / RFU, C1orf63 / Fold change vs veh, C1orf63 / RFU, LRRFIP1 / Fold change vs veh, LRRFIP1 / RFU, NDUFAF7 / Fold change vs veh, NDUFAF7 / RFU, SLC12A2 / Fold change vs veh, SLC12A2 / RFU, IBTK / Fold change vs veh, IBTK / RFU, ESF1 / Fold change vs veh, ESF1 / Fold change vs veh, TMEM50B / RFU, TAOK1 / Fold change vs veh, TAOK1 / RFU, ACBD3 / Fold change vs veh, ACBD3 / RFU, TMA16 / Fold change vs veh, TMA16 / RFU, RWDD3 / Fold change vs veh, RWDD3 / RFU, BCAT1 / Fold change vs veh, BCAT1 / RFU, EDEM3 / Fold change vs veh, EDEM3 / RFU, TMEM33 / Fold change vs veh, TMEM33 / RFU, WDR75 / Fold change vs veh, WDR75 / RFU, AHCTF1 / Fold change vs veh, AHCTF1 / RFU, TFRC / Fold change vs veh, TFRC / RFU, ZDHHC17 / Fold change vs veh, ZDHHC17 / RFU, NOM1 / Fold change vs veh, NOM1 / RFU, ARL8B / Fold change vs veh, ARL8B / RFU, ZBTB11 / Fold change vs veh, ZBTB11 / RFU, TAMM41 / Fold change vs veh, TAMM41 / RFU, KIAA1704 /// LOC100996395 / Fold change vs veh, KIAA1704 /// LOC100996395 / RFU, ING1 / Fold change vs veh, ING1 / RFU, TRMT61B / Fold change vs veh, TRMT61B / RFU, FUBP3 / Fold change vs veh, FUBP3 / RFU, TP53 / Fold change vs veh, TP53 / RFU, TNKS2 / Fold change vs veh, TNKS2 / RFU, ZFP14 / Fold change vs veh, ZFP14 / RFU, ACTR2 / Fold change vs veh, ACTR2 / RFU, PPP3R1 / Fold change vs veh, PPP3R1 / RFU, PIK3R1 / Fold change vs veh, PIK3R1 / RFU, HNRNPA1 / Fold change vs veh, HNRNPA1 / RFU, RNF170 / Fold change vs veh, RNF170 / RFU, ZNF28 / Fold change vs veh, ZNF28 / RFU, RNGTT / Fold change vs veh, RNGTT / RFU, OGT / Fold change vs veh, OGT / RFU, BRD1 / Fold change vs veh, BRD1 / RFU, MARS / Fold change vs veh, MARS / RFU, ZNF655 / Fold change vs veh, ZNF655 / RFU, FAHD1 / Fold change vs veh, FAHD1 / RFU, BDP1 / Fold change vs veh, BDP1 / RFU, LRRCC1 / Fold change vs veh, LRRCC1 / RFU, ARID1A / Fold change vs veh, ARID1A / RFU, ZNF146 / Fold change vs veh, ZNF146 / RFU, ZNF330 / Fold change vs veh, ZNF330 / RFU, GPN3 / Fold change vs veh, GPN3 / RFU, C9orf123 / Fold change vs veh, C9orf123 / RFU, N4BP2L2 / Fold change vs veh, N4BP2L2 / RFU, ARFIP1 / Fold change vs veh, ARFIP1 / RFU, FAM179B / Fold change vs veh, FAM179B / RFU, BCL10 / Fold change vs veh, BCL10 / RFU, UHRF1BP1L / Fold change vs veh, UHRF1BP1L / RFU, BET1 / Fold change vs veh, BET1 / RFU, CNOT2 / Fold change vs veh, CNOT2 / RFU, ZNF268 / Fold change vs veh, ZNF268 / Fold change vs veh, ZNF507 / RFU, DGCR2 / Fold change vs veh, DGCR2 / RFU, WDSUB1 / Fold change vs veh, WDSUB1 / Fold change vs veh, HSP90B1 /// MIR3652 / RFU, ADSS / Fold change vs veh, ADSS / RFU, GK / Fold change vs veh, GK / RFU, ZNF148 / Fold change vs veh, ZNF148 / RFU, TAF9 / Fold change vs veh, TAF9 / RFU, SLC1A5 / Fold change vs veh, SLC1A5 / RFU, SLMO2 / Fold change vs veh, SLMO2 / RFU, ABCC4 / Fold change vs veh, ABCC4 / RFU, LOC101060439 /// RAP1B / Fold change vs veh, LOC101060439 /// RAP1B / RFU, RFX7 / Fold change vs veh, RFX7 / RFU, GTPBP10 / Fold change vs veh, GTPBP10 / RFU, CNEP1R1 / Fold change vs veh, CNEP1R1 / RFU, BIVM-ERCC5 /// ERCC5 / Fold change vs veh, BIVM-ERCC5 /// ERCC5 / RFU, ILF3 / Fold change vs veh, ILF3 / RFU 11762660_at / Fold change /veh 11762660_at / RFU VCAN (11757783_s_at) / Fold change /veh VCAN (11757783_s_at) / RFU DDX43 (11728927_at) / Fold change /veh DDX43 (11728927_at) / RFU KRT8 (11758188_x_at) / Fold change /veh KRT8 (11758188_x_at) / RFU NKD1 (11759106_at) / Fold change /veh NKD1 (11759106_at) / RFU SRD5A1 (11742802_a_at) / Fold change /veh SRD5A1 (11742802_a_at) / RFU TPSAB1 /// TPSB2 (11721975_s_at) / Fold change /veh TPSAB1 /// TPSB2 (11721975_s_at) / RFU GSTM3 (11746129_a_at) / Fold change /veh GSTM3 (11746129_a_at) / RFU IL23R (11737362_x_at) / Fold change /veh IL23R (11737362_x_at) / RFU TMEM51 (11727254_a_at) / Fold change /veh TMEM51 (11727254_a_at) / RFU PIWIL2 (11732686_x_at) / Fold change /veh PIWIL2 (11732686_x_at) / RFU ORM1 (11744905_x_at) / Fold change /veh ORM1 (11744905_x_at) / RFU CCDC152 (11743942_at) / Fold change /veh CCDC152 (11743942_at) / RFU ECM1 (11717891_a_at) / Fold change /veh ECM1 (11717891_a_at) / RFU IL23R (11748794_a_at) / Fold change /veh IL23R (11748794_a_at) / RFU TNFAIP8L3 (11732012_x_at) / Fold change /veh TNFAIP8L3 (11732012_x_at) / RFU MBOAT4 (11741988_at) / Fold change /veh MBOAT4 (11741988_at) / RFU 11764193_at / Fold change /veh 11764193_at / RFU TMEM53 (11763286_at) / Fold change /veh TMEM53 (11763286_at) / RFU MAGEB2 (11727129_at) / Fold change /veh MAGEB2 (11727129_at) / RFU TMEM200A (11744735_a_at) / Fold change /veh TMEM200A (11744735_a_at) / RFU CCDC152 (11751479_a_at) / Fold change /veh CCDC152 (11751479_a_at) / RFU FAM211A (11726209_a_at) / Fold change /veh FAM211A (11726209_a_at) / RFU RGS16 (11746705_a_at) / Fold change /veh RGS16 (11746705_a_at) / RFU VCAN (11755009_s_at) / Fold change /veh VCAN (11755009_s_at) / RFU RHOB (11743442_s_at) / Fold change /veh RHOB (11743442_s_at) / RFU RGS16 (11720943_a_at) / Fold change /veh RGS16 (11720943_a_at) / RFU RGS16 (11720944_at) / Fold change /veh RGS16 (11720944_at) / RFU, VPS4B / Fold change vs veh, VPS4B / RFU, CREB1 / Fold change vs veh, CREB1 / RFU, DNAJC13 / Fold change vs veh, DNAJC13 / RFU, GNAQ / Fold change vs veh, GNAQ / RFU, CDK5R1 / Fold change vs veh, CDK5R1 / RFU, ZRANB3 / Fold change vs veh, ZRANB3 / RFU, CUL4A / Fold change vs veh, CUL4A / RFU, CCNY / Fold change vs veh, CCNY / RFU, UFL1 / Fold change vs veh, UFL1 / RFU, COG3 / Fold change vs veh, COG3 / RFU, DIAPH2 / Fold change vs veh, DIAPH2 / RFU, SKA2 / Fold change vs veh, SKA2 / RFU, AFF3 / Fold change vs veh, AFF3 / RFU, LMF1 / Fold change vs veh, LMF1 / RFU, IPO11 / Fold change vs veh, IPO11 / RFU, DFFB / Fold change vs veh, DFFB / RFU, FOXP1 / Fold change vs veh, FOXP1 / RFU, CARD8 / Fold change vs veh, CARD8 / RFU, STRN3 / Fold change vs veh, STRN3 / RFU, ADK / Fold change vs veh, ADK / RFU, RASSF2 / Fold change vs veh, RASSF2 / RFU, WIPF1 / Fold change vs veh, WIPF1 / RFU, LARP1B / Fold change vs veh, LARP1B / RFU, RASA1 / Fold change vs veh, RASA1 / RFU, RB1 / Fold change vs veh, RB1 / RFU, PPFIA1 / Fold change vs veh, PPFIA1 / RFU, MAT2A / Fold change vs veh, MAT2A / RFU, CCT5 / Fold change vs veh, CCT5 / RFU, WDR92 / Fold change vs veh, WDR92 / RFU, CUX1 / Fold change vs veh, CUX1 / RFU, TTC7A / Fold change vs veh, TTC7A / RFU, TMEM135 / Fold change vs veh, TMEM135 / RFU, DEPTOR / Fold change vs veh, DEPTOR / RFU, CPM / Fold change vs veh, CPM / RFU, DNAJB6 / Fold change vs veh, DNAJB6 / RFU, CACNA2D3 / Fold change vs veh, CACNA2D3 / RFU, DTX4 / Fold change vs veh, DTX4 / RFU, TFCP2 / Fold change vs veh, TFCP2 / RFU, GMCL1 /// GMCL1P1 / Fold change vs veh, GMCL1 /// GMCL1P1 / RFU, AEBP2 / Fold change vs veh, AEBP2 / RFU, SNHG1 /// SNORD22 /// SNORD25 /// SNORD26 /// SNORD27 /// SNORD28 /// SNORD29 /// SNORD31 / Fold change vs veh, SNHG1 /// SNORD22 /// SNORD25 /// SNORD26 /// SNORD27 /// SNORD28 /// SNORD29 /// SNORD31 / Fold change (Aza/veh), C12orf56 (ProbeSet 11735607_a_at) / Fold change (ACY-1035/veh), C12orf56 (ProbeSet 11735607_a_at) / Fold change (Aza/veh), FGFR1OP (ProbeSet 11751329_s_at) / Fold change (ACY-1035/veh), FGFR1OP (ProbeSet 11751329_s_at) / Fold change (Aza/veh), VPS36 (ProbeSet 11739960_a_at) / Fold change (ACY-1035/veh), VPS36 (ProbeSet 11739960_a_at) / RFU SYPL1 (11715823_x_at) / Fold change /veh SYPL1 (11715823_x_at) / RFU IGFBP7 (11715501_s_at) / Fold change /veh IGFBP7 (11715501_s_at) / RFU REEP3 (11722064_at) / Fold change /veh REEP3 (11722064_at) / RFU IGLL1 (11728026_x_at) / Fold change /veh IGLL1 (11728026_x_at): dose or concentration left out as unconfirmed
# Settings: ProbeSet 11753234_a_at; LIST B
compound,measurement,value
Nc1ccc(-c2cccs2)cc1NC(=O)c1ccc2c(c1)cc(C1CC1)n2CCN1CCOCC1 [ACY-1035],"RFU, TAMM41",55.35 RFU

# From PMC5218480 (PLoS ONE, 2017)
